ChEMBL document CHEMBL6074682, “Expanding the therapeutic window of gramicidin S towards a safe and effective systemic treatment of methicillin-resistant S. aureus infections” (Eur J Med Chem, 2025)
Converted amounts (≈) assume the structure as drawn. Square brackets hold non-standard residues; d marks the D form. Peptide text beside a SMILES is read from it. Tle = CC(C)(C)[C@H](N)C(=O)O; Orn = NCCC[C@H](N)C(=O)O

How the values were obtained:
[1] = Hemolytic activity in human RBC assessed as hemolysis incubated for 1 hr by absorbance based assay; assay type: toxicity, cell-based, Erythrocyte; settings: human red blood cells
[2] = Nephrotoxicity against HEK293 cells assessed as cell viability incubated for 24 hrs by MTT assay; assay type: toxicity, cell-based; settings: human
[3] = Retention time of the compound by RP-HPLC analysis; assay type: physicochemical
Staphylococcus aureus [4] = assay: Antibacterial activity against methicillin-resistant Staphylococcus aureus ATCC USA 300 clinical isolate assessed as bacterial growth inhibition at 256 to 0.125 ug/ml in CAMH broth medium incubated for 16 to 20 hrs by broth microdilution method; assay type: functional; settings: dose 256-0.125 µg/ml, time 16-20 hrs
Staphylococcus aureus [5] = assay: Antibacterial activity against methicillin-sensitive Staphylococcus aureus ATCC 29213 clinical isolate assessed as bacterial growth inhibition at 256 to 0.125 ug/ml in CAMH broth medium incubated for 16 to 20 hrs by broth microdilution method; assay type: functional; settings: dose 256-0.125 µg/ml, time 16-20 hrs
[6] = Therapeutic index, ratio of HC50 for human RBC to MIC for antibacterial activity against methicillin-sensitive Staphylococcus aureus ATCC 29213 clinical isolate; assay type: toxicity, cell-based; settings: pooled result: one value given for 2 cell lines, strains, targets or settings, read-out: TI

CC(C)(C)[C@@H]1NC(=O)[C@H](CCCN)NC(=O)[C@H](C(C)(C)C)NC(=O)[C@@H]2CCCN2C(=O)[C@@H](Cc2ccccc2)NC(=O)[C@H](C(C)(C)C)NC(=O)[C@H](CCCN)NC(=O)[C@H](C(C)(C)C)NC(=O)[C@@H]2CCCN2C(=O)[C@@H](CCCNC(=N)N)NC1=O (cyclo([Orn][Tle][dF]P[Tle][Orn][Tle][dR]P[Tle]))
HC50 at 1 h [1]: 84.1 µg/mL
IC50 at 24 h [2]: 12.6 µg/mL (≈ 10.7 µM)
Retention_time [3]: 16.92 min
MIC (Staphylococcus aureus [4]): 6 µg/mL (≈ 5.09 µM)
MIC (Staphylococcus aureus [5]): 6 µg/mL (≈ 5.09 µM)
selectivity ratio [6]: 14

CC(C)C[C@@H]1NC(=O)[C@H](CCCN)NC(=O)[C@H](C(C)(C)C)NC(=O)[C@@H]2CCCN2C(=O)[C@@H](Cc2ccccc2)NC(=O)[C@H](CC(C)C)NC(=O)[C@H](CCCN)NC(=O)[C@H](C(C)(C)C)NC(=O)[C@@H]2CCCN2C(=O)[C@@H](CCCNC(=N)N)NC1=O (HELM PEPTIDE1{L.[dF].P.[CC(C)(C)[C@H](N[*:1])C(=O)[*:2]].[Orn].L.[dR].P.[CC(C)(C)[C@H](N[*:1])C(=O)[*:2]].[Orn]}$PEPTIDE1,PEPTIDE1,1:R1-10:R2$$$V2.0)
HC50 at 1 h [1]: 17.7 µg/mL
IC50 at 24 h [2]: 9.75 µg/mL (≈ 8.27 µM)
Retention_time [3]: 17.15 min
MIC (Staphylococcus aureus [4]): 3 µg/mL (≈ 2.55 µM)
MIC (Staphylococcus aureus [5]): 3 µg/mL (≈ 2.55 µM)
selectivity ratio [6]: 5.9

CC(C)C[C@@H]1NC(=O)[C@H](CCCN)NC(=O)[C@H](C(C)C)NC(=O)[C@H](Cc2c[nH]c3ccccc23)NC(=O)[C@@H](Cc2c[nH]c3ccccc23)NC(=O)[C@H](CC(C)C)NC(=O)[C@H](CCCN)NC(=O)[C@H](C(C)C)NC(=O)[C@H](Cc2c[nH]c3ccccc23)NC(=O)[C@@H](Cc2c[nH]c3ccccc23)NC1=O
HC50 at 1 h [1]: 55.6 µg/mL
IC50 at 24 h [2]: 19.7 µg/mL (≈ 14.1 µM)
Retention_time [3]: 18.69 min
MIC (Staphylococcus aureus [4]): 32 µg/mL (≈ 22.9 µM)
MIC (Staphylococcus aureus [5]): 32 µg/mL (≈ 22.9 µM)
selectivity ratio [6]: 1.74

CC(C)C[C@@H]1NC(=O)[C@H](CCCN)NC(=O)[C@H](C(C)C)NC(=O)[C@H](Cc2c[nH]c3ccccc23)NC(=O)[C@@H](Cc2ccccc2)NC(=O)[C@H](CC(C)C)NC(=O)[C@H](CCCN)NC(=O)[C@H](C(C)C)NC(=O)[C@H](Cc2c[nH]c3ccccc23)NC(=O)[C@@H](Cc2ccccc2)NC1=O (HELM PEPTIDE1{L.[dF].W.V.[Orn].L.[dF].W.V.[Orn]}$PEPTIDE1,PEPTIDE1,1:R1-10:R2$$$V2.0)
HC50 at 1 h [1]: 12.2 µg/mL
IC50 at 24 h [2]: 5.03 µg/mL (≈ 3.81 µM)
Retention_time [3]: 18.58 min
MIC (Staphylococcus aureus [4]): 7 µg/mL (≈ 5.3 µM)
MIC (Staphylococcus aureus [5]): 7 µg/mL (≈ 5.3 µM)
selectivity ratio [6]: 1.75

CC(C)(C)[C@@H]1NC(=O)[C@H](CCCN)NC(=O)[C@H](C(C)(C)C)NC(=O)[C@@H]2CCCN2C(=O)[C@@H](Cc2ccccc2)NC(=O)[C@H](C(C)(C)C)NC(=O)[C@H](CCCN)NC(=O)[C@H](C(C)(C)C)NC(=O)[C@@H]2CCCN2C(=O)[C@@H](Cc2ccccc2)NC1=O (cyclo([Orn][Tle][dF]P[Tle][Orn][Tle][dF]P[Tle]))
HC50 at 1 h [1]: 5.9 µg/mL
IC50 at 24 h [2]: 5.31 µg/mL (≈ 4.54 µM)
Retention_time [3]: 19.9 min
MIC (Staphylococcus aureus [4]): 2 µg/mL (≈ 1.71 µM)
MIC (Staphylococcus aureus [5]): 2 µg/mL (≈ 1.71 µM)
selectivity ratio [6]: 2.95

CC(C)C[C@@H]1NC(=O)[C@H](CCCN)NC(=O)[C@H](C(C)(C)C)NC(=O)[C@@H]2CCCN2C(=O)[C@@H](Cc2ccccc2)NC(=O)[C@H](CC(C)C)NC(=O)[C@H](CCCN)NC(=O)[C@H](C(C)(C)C)NC(=O)[C@@H]2CCCN2C(=O)[C@@H](Cc2ccccc2)NC1=O (HELM PEPTIDE1{L.[dF].P.[CC(C)(C)[C@H](N[*:1])C(=O)[*:2]].[Orn].L.[dF].P.[CC(C)(C)[C@H](N[*:1])C(=O)[*:2]].[Orn]}$PEPTIDE1,PEPTIDE1,1:R1-10:R2$$$V2.0)
HC50 at 1 h [1]: 6.26 µg/mL
IC50 at 24 h [2]: 4.62 µg/mL (≈ 3.95 µM)
Retention_time [3]: 19.99 min
MIC (Staphylococcus aureus [4]): 4 µg/mL (≈ 3.42 µM)
MIC (Staphylococcus aureus [5]): 4 µg/mL (≈ 3.42 µM)
selectivity ratio [6]: 1.57
